The results in this text go back to patent publication US20110230481A2, “DERIVATIVES OF TETRABROMOBENZIMIDAZOLE, A PROCESS FOR THE PREPARATION THEREOF, A PHARMACEUTICAL COMPOSITION COMPRISING THE SAME, A METHOD OF USING THE SAME, A METHOD FOR MODULATING OR REGULATING SERINE/THREONINE KINASES, AND SERINE/THREONINE KINASES MODULATING AGENT” (SELVITA S.A., priority 2009, published 2011).

Where two headings read alike, the source gives them in different places.

Assay [1] has as its system human chronic myelocytic leukemia K562 cells. Description: Growth inhibition test (MTS). The assay is classed as cell-based. The following applies: 72 hours. The procedure:
(§1) Ten thousand cells of human chronic myelocytic leukemia K562 were inoculated into each well of a 96-well microplate (manufactured by Corning Corp.) using Iscove's MDM medium (culture medium) containing 10% fetal calf serum (FCS). The same day, a dimethyl sulfoxide (DMSO) solution of each test compound prepared in a concentration of 10 mmol/L was further diluted with DMSO to the desired concentrations (0.1, 0.5, 1, 2.5, 5 and 10 micromol/L), and the diluted solution was added to each well. The individual wells were further cultured in 5% carbon dioxide at 37° C. for 72 hours. After completion of the culture, 10 μl MTS (3-(4,5-Dimethyl-2-thiazolyl)-5-(carboxymethoxyphenyl)-2-(4-sulfophenyl)-2H-tetrazolium, inner salt assay (CellTiter96® AQueous One Solution Cell Proliferation Assay, Promega) was added to each well, and culturing was performed in 5% carbon dioxide at 37° C. for 2 hours. Using a microplate spectrophotometer (Synergy 2 multi-mode microplate reader (BioTek)), the absorbance of each well was measured at 490 nm. The value for cells not incorporated with a test compound was designated as 100%. By comparing these values with the absorbance difference obtained at the well in which each test compound was added, the cell viability (% viability) after treatment with the test compound was calculated.

Assay [2] has as its system human prostate carcinoma DU145 cells. Briefly: Growth inhibition test (MTS). Format: cell-based. The conditions noted are these: 72 hours. How it is done:
as §1, with “Two” for “Ten”, “prostate carcinoma DU145” for “chronic myelocytic leukemia K562”, “Corp.), and” for “Corp.)”, “DMEM” for “Iscove's MDM”, “innersalt” for “inner salt”

Assay [3] concerns human chronic myelogenous leukemia MEG-01 cells. Description: Growth inhibition test (MTS). Format: cell-based. The following applies: MEG01; 72 hours. The procedure: as §1, with “myelogenous” for “myelocytic”, “MEG-01” for “K562”, “RPMI 8226” for “Iscove's MDM”
The test system of assay [4] is human myelomonocytic, biphenotypic leukemia MV4-11 cells. Briefly: Growth inhibition test (MTS). Format: cell-based. The conditions noted are these: MV-4-11, 72 hours, read-out: Cytotoxicity in MTS assay (ED50). The procedure: as §1, with “myelomonocytic, biphenotypic” for “chronic myelocytic”, “MV4-11” for “K562”
A general note: Tetrazolium dyes change colour on reduction, which living cells bring about.

For the next assay, the target named is PIM3 (Homo sapiens, UniProt Q86V86). Description: Radiometric kinase assay (HotSpot). The conditions noted are these: for Selectivity for Pim-3 over CK2α: ratio of IC50 values.
The subject of assay [5] is human acute promyelocytic leukemia HL-60 cells. Briefly: Growth inhibition test (MTS). Format: cell-based. The following applies: 72 hours. How it is done:
as §1, with “acute promyelocytic” for “chronic myelocytic”, “HL-60” for “K562”, “RPMI 8226” for “Iscove's MDM”

Another assay deals with CK2α (Homo sapiens, UniProt P68400). Description: Radiometric kinase assay (HotSpot).
Setting [6] is: read-out: Inhibitory activity (IC50 in nM) in radiometric cell free assay, Pim-3, ATP 1 μM, peptide 20 μM.
[7] abbreviates: read-out: Inhibitory activity (IC50 in nM) in radiometric cell free assay, CK2α, ATP 1 μM, peptide 20 μM.

CK2α, sequence (P68400 whole entry): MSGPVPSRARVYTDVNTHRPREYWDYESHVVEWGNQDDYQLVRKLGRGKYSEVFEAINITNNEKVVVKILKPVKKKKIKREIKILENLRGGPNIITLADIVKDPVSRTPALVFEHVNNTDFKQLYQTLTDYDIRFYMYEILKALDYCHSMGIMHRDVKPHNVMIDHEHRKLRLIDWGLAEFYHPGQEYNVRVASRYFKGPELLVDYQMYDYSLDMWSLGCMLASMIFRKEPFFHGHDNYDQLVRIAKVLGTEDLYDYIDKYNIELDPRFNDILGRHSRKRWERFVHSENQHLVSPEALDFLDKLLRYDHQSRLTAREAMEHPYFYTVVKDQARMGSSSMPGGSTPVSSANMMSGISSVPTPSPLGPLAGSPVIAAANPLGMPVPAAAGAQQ
Method for CK2α: (§2) Kinase assays were performed at Reaction Biology Corporation (www.reactionbiology.com, Malvern Pa.) using the “HotSpot” assay platform. This assay platform is based on a radiometric filtration binding assay and is considered as the “gold standard” to which non-radiometric methods are compared. In this assay format, the kinase reaction is performed in the presence of 32 P-γ-ATP or 33 P-γ-ATP, followed by binding of the final radioisotope labeled peptide product to filters after which unreacted phosphate is washed away and the levels of phosphorylated peptide are measured.
Method for PIM3: as §2

`Brc1c(Br)c(Br)c2[nH]nnc2c1Br` [TBB, reference compound]: the “Cytotoxicity in MTS assay (ED50)” value in assay [1], in assay [2] and in assay [3] was over 10 µM each time. The IC50 in assay [4] was over 10 µM; on PIM3 (setting [6]) it was 269 nM.

As for `Brc1c(Br)c(Br)c2[nH]c(NCCN3CCCC3)nc2c1Br` [Compound 14, 4,5,6,7-tetrabromo-N-(2-(pyrrolidin-1-yl)ethyl)-1H-benzo[d]imidazol-2-amine], the “Cytotoxicity in MTS assay (ED50)” value is 3.14 µM in assay [2], 3.35 µM in assay [3] and 2.04 µM in assay [5]. Also, the IC50 in assay [4] (Homo sapiens, MV4-11) was found to be 1.29 µM; against PIM3 it was 28.2 nM; on CK2α it was 833 nM. Besides, at PIM3, the “Selectivity for Pim-3 over CK2α” value is given as 29.6.

Turning to `CN(C)c1nc2c(Br)c(Br)c(Br)c(Br)c2[nH]1` [DMAT, reference compound], the “Cytotoxicity in MTS assay (ED50)” value in assay [1] is over 10 µM; in assay [2] it was over 10 µM; in assay [3] it was 8.91 µM; in assay [5], over 10 µM. The IC50 turned out to be 3.15 µM in assay [4] and 87.3 nM at PIM3 (setting [6]).

Regarding `CN1CCN(c2nc3c(Br)c(Br)c(Br)c(Br)c3[nH]2)CC1` [Compound 21, 4,5,6,7-tetrabromo-2-(4-methylpiperazin-1-yl)-1H-benzo[d]imidazole], the “Cytotoxicity in MTS assay (ED50)” value is 9.54 µM in assay [2] and over 10 µM in assay [5]. Moreover, the IC50 was 3.78 µM in assay [4] (Homo sapiens, MV4-11); 84.1 nM on PIM3; 1830 nM at CK2α. Moreover, the “Selectivity for Pim-3 over CK2α” value at PIM3 is given as 21.7.

On to `NCCCNc1nc2c(Br)c(Br)c(Br)c(Br)c2[nH]1` [Compound 11, N-(3-aminopropyl)-4,5,6,7-tetrabromo-1H-benzo[d]imidazol-2-amine], for which the “Cytotoxicity in MTS assay (ED50)” value was found to be 7.48 µM in assay [1], 7.62 µM in assay [2], 7.85 µM in assay [3] and 6.12 µM in assay [5]. In addition, the IC50 in assay [4] (Homo sapiens, MV4-11) was determined as 1.78 µM; at PIM3 it was 23.3 nM; against CK2α, 1020 nM. For the same molecule, the “Selectivity for Pim-3 over CK2α” value at PIM3 was determined as 43.6.

As to `CN(C)c1nc2c(Br)c(Br)c(Br)c(Br)c2n1CC(=O)O` [Compound K66, reference compound], the “Cytotoxicity in MTS assay (ED50)” value in assay [1], in assay [2] and in assay [3] was over 10 µM each time. Also, the IC50 in assay [4] was over 10 µM; on PIM3 (setting [6]) it was 96.3 nM; at CK2α (setting [7]), 206 nM. For the same molecule, the “Selectivity for Pim-3 over CK2α” value on PIM3 was determined as 2.1.

In the case of `Brc1c(Br)c(Br)c2[nH]cnc2c1Br` [TBI, reference compound], the “Cytotoxicity in MTS assay (ED50)” value in assay [1], in assay [2] and in assay [3] was over 10 µM in each case. Besides, the IC50 in assay [4] is over 10 µM; at PIM3 (setting [6]), 2940 nM.

Turning to `Brc1c(Br)c(Br)c2[nH]c(N3CCNCC3)nc2c1Br` [Compound 20, 4,5,6,7-tetrabromo-2-(piperazin-1-yl)-1H-benzo[d]imidazole], the “Cytotoxicity in MTS assay (ED50)” value in assay [1] was determined as 7.25 µM; in assay [2] it was 9.27 µM; in assay [3], 4.49 µM; in assay [5], 7.88 µM. For the same molecule, the IC50 was 0.79 µM in assay [4] (Homo sapiens, MV4-11); 42 nM at PIM3; 132 nM on CK2α. Besides, the “Selectivity for Pim-3 over CK2α” value on PIM3 amounted to 3.1.

For the molecule `Brc1c(Br)c(Br)c2c(Br)n[nH]c2c1Br` [Compound K64, reference compound], the “Cytotoxicity in MTS assay (ED50)” value in assay [1], in assay [2] and in assay [3] was over 10 µM each time. In addition, the IC50 in assay [4] was over 10 µM; at PIM3 (setting [6]) it was 212 nM; on CK2α (setting [7]) it was 637 nM. Further, the “Selectivity for Pim-3 over CK2α” value on PIM3 came out at 3.0.

For the molecule `Brc1c(Br)c(Br)c2[nH]c(NCCN3CCCCC3)nc2c1Br` [Compound 13, 4,5,6,7-tetrabromo-N-(2-(piperidin-1-yl)ethyl)-1H-benzo[d]imidazol-2-amine], the figures for the “Cytotoxicity in MTS assay (ED50)” value in assay [2], in assay [3] and in assay [5] were 4.1 µM, 4.37 µM and 3.29 µM, respectively. Further, the IC50 in assay [4] (Homo sapiens, MV4-11) was determined as 3.16 µM; against PIM3, 60.7 nM; at CK2α, 2260 nM. The “Selectivity for Pim-3 over CK2α” value at PIM3 is recorded as 37.3.

In the case of `Brc1c(Br)c(Br)c2[nH]c(NCCN3CCOCC3)nc2c1Br` [Compound 16, 4,5,6,7-tetrabromo-N-(2-morpholinoethyl)-1H-benzo[d]imidazol-2-amine], the entries for the “Cytotoxicity in MTS assay (ED50)” value in assay [2] and in assay [5] were 8.64 µM and over 10 µM, respectively. Further, the IC50 was found to be 2.17 µM in assay [4] (Homo sapiens, MV4-11); 114 nM on PIM3; 6880 nM against CK2α. In addition, at PIM3, the “Selectivity for Pim-3 over CK2α” value was determined as 60.1.
